Each structure is given as a SMILES string.

Data set [1] has as its system Abeta 1-42 produced and secreted by human neuroblastoma SKNBE2 cells expressing hAPP695. The data set is described as follows: Cellular αLisa assay in SKNBE2 cells, Abeta 1-42. The following applies: 18 hours incubation, read-out: Cellular αLisa assay in SKNBE2 cells Abeta 42 pIC50 (converted). The data set is classed as cell-based. The procedure:
(§1) In two αLisa assays the levels of Abeta total and Abeta 1-42 produced and secreted into the medium of human neuroblastoma SKNBE2 cells are quantified. The assay is based on the human neuroblastoma SKNBE2 expressing the wild type Amyloid Precursor Protein (hAPP695). The compounds are diluted and added to these cells, incubated for 18 hours and then measurements of Abeta 1-42 and Abeta total are taken. Abeta total and Abeta 1-42 are measured by sandwich αLisa. αLisa is a sandwich assay using biotinylated antibody AbN/25 attached to streptavidin coated beads and antibody Ab4G8 or cAb42/26 conjugated acceptor beads for the detection of Abeta total and Abeta 1-42 respectively. In the presence of Abeta total or Abeta 1-42, the beads come into close proximity. The excitation of the donor beads provokes the release of singlet oxygen molecules that trigger a cascade of energy transfer in the acceptor beads, resulting in light emission. Light emission is measured after 1 hour incubation (excitation at […] and emission at 615 nm).
(§2) A best-fit curve is fitted by a minimum sum of squares method to the plot of % Controlmin versus compound concentration. From this an IC50 value (inhibitory concentration causing 50% inhibition of activity) can be obtained. • LC=Median of the low control values • =Low control: cells preincubated without compound, without biotinylated Ab in the αLisa • HC=Median of the High control values • =High Control: cells preincubated without compound • % Effect=100−[(sample−LC)/(HC−LC)*100] • % Control=(sample/HC)*100 • % Controlmin=(sample−LC)/(HC−LC)*100

The target of data set [2] is T1, recombinant BACE2 protein (Homo sapiens, UniProt Q9Y5Z0).
T1 sequence (Q9Y5Z0 63-518): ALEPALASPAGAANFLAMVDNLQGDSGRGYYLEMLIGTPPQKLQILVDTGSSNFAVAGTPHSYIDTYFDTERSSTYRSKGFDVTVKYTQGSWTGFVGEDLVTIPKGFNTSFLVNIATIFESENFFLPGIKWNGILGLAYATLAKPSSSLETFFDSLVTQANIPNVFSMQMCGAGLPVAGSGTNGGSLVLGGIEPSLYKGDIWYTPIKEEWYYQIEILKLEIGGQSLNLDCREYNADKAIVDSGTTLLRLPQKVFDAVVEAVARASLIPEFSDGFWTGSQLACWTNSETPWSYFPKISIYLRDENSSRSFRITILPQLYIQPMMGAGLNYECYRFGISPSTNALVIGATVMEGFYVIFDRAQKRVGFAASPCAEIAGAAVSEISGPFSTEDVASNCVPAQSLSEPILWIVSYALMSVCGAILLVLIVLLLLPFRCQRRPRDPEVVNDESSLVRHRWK
As to the kind of experiment: BACE2 biochemical FRET based assay. The following applies: BACE2 0.4 μg/ml, 10 μM substrate, pH 5.0, 450 min; read-out: BACE2 Biochemical FRET based assay pIC50 (converted). The text has this:
(§3) This assay is a Fluorescence Resonance Energy Transfer Assay (FRET) based assay. The substrate for this assay contains the ‘Swedish’ Lys-Met/Asn-Leu mutation of the amyloid precursor protein (APP) beta-secretase cleavage site. This substrate also contains two fluorophores: (7-methoxycoumarin-4-yl) acetic acid (Mca) is a fluorescent donor with excitation wavelength at 320 nm and emission at 405 nm and 2,4-Dinitrophenyl (Dnp) is a proprietary quencher acceptor. […] Upon cleavage by the beta-secretase, the fluorophore Mca is separated from the quenching group Dnp, restoring the full fluorescence yield of the donor. The increase in fluorescence is linearly related to the rate of proteolysis.
Briefly in a 384-well format recombinant BACE2 protein in a final concentration of 0.4 μg/ml is incubated for 450 minutes at room temperature with 10 μM substrate in incubation buffer (50 mM Citrate buffer pH 5.0, 0.05% PEG, no DMSO) in the absence or presence of compound. Next the amount of proteolysis is directly measured by fluorescence measurement at T=0 and T=450 (excitation at 320 nm and emission at 405 nm). Results are expressed in RFU (Relative Fluorescence Units), as difference between T450 and T0.
(§4) A best-fit curve is fitted by a minimum sum of squares method to the plot of % Controlmin versus compound concentration. From this an IC50 value (inhibitory concentration causing 50% inhibition of activity) can be obtained. • LC=Median of the low control values • =Low control: Reaction without enzyme • HC=Median of the High control values • =High Control: Reaction with enzyme • % Effect=100−[(sample−LC)/(HC−LC)*100] • % Control=(sample/HC)*100 • % Controlmin=(sample−LC)/(HC−LC)*100

Data set [3] has as its system Abeta total produced and secreted by human neuroblastoma SKNBE2 cells expressing hAPP695. The data set is described as follows: Cellular αLisa assay in SKNBE2 cells, Abeta total. The data set is classed as cell-based. The following applies: 18 hours incubation, read-out: Cellular αLisa assay in SKNBE2 cells Abetatotal pIC50 (converted). The procedure:
as §1, §2

In data set [4] the target is recombinant BACE1 protein (Homo sapiens, UniProt P56817). As to the kind of experiment: BACE1 biochemical FRET based assay. To be noted: BACE1 0.04 μg/ml, 20 μM substrate, pH 5.0, 450 min; read-out: Biochemical FRET based assay pIC50 (converted).
From the text: as §3, with “this assay is an APP derived 13 amino acids peptide that contains the” for “this assay contains the”, “cleavage by BACE1, the fluorophore” for “cleavage by the beta-secretase, the fluorophore”
Briefly in a 384-well format recombinant BACE1 protein in a final concentration of 0.04 μg/ml is incubated for 450 minutes at room temperature with 20 μM substrate in incubation buffer (50 mM Citrate buffer pH 5.0, 0.05% PEG) in the presence of compound or DMSO. Next the amount of proteolysis is directly measured by fluorescence measurement (excitation at 320 nm and emission at 405 nm) at different incubation times (0, 30, 60, 90, 120 and 450 min). For every experiment a time curve (every 30 min between 0 min and 120 min) is used to determine the time where we find the lowest basal signal of the high control. The signal at this time (Tx) is used to subtract from the signal at 450 min. Results are expressed in RFU, as difference between T450 and Tx.
as §4

Sequence of recombinant BACE1 protein (P56817 46-501): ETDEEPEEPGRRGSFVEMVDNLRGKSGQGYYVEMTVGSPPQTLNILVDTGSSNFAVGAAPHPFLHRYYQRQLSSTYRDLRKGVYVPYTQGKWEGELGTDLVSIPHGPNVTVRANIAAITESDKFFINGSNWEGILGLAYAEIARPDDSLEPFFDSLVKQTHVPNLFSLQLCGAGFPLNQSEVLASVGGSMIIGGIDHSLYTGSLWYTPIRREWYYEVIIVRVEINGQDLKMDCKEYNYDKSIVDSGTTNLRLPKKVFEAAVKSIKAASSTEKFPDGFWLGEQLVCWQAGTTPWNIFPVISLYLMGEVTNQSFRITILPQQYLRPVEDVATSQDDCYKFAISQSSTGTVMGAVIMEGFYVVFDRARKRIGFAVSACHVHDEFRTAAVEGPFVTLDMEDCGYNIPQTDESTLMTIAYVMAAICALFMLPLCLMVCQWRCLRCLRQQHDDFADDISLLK

With `Cn1cc2n(c1=O)C[C@@](C)(c1cc(-c3cncnc3)ccc1F)N=C2N` [Compound 2, (6R)-8-Amino-6-(2-fluoro-5-pyrimidin-5-ylphenyl)-2,6-dimethyl-5,6-dihydro-imidazo[1,5-a]pyrazin-3(2H)-one], the melting point is 239.1 °C. Moreover, the IC50 in data set [1] was 1260 nM. For the same compound, the IC50 in data set [2] was 7080 nM. Further, in data set [3], the IC50 was 1020 nM. Moreover, the IC50 in data set [4] was 490 nM.

In the case of `COc1cnc(C(=O)Nc2ccc(F)c([C@]3(C)Cn4c(cn(C)c4=O)C(N)=N3)c2)cn1` [Compound 5, N-{3-[(6R)-8-amino-2,6-dimethyl-3-oxo-2,3,5,6-tetrahydroimidazo[1,5-a]pyrazin-6-yl]-4-fluorophenyl}-5-methoxypyrazine-2-carboxamide], the IC50 in data set [1] was 36.3 nM; in data set [2] it was 100 nM; in data set [3], 29.5 nM; in data set [4], 9.55 nM.

As for `Cn1cc2n(c1=O)C[C@@](C)(c1cc(NC(=O)c3ccc(F)cn3)ccc1F)N=C2N` [Compound 6, N-{3-[(6R)-8-amino-2,6-dimethyl-3-oxo-2,3,5,6-tetrahydroimidazo[1,5-a]pyrazin-6-yl]-4-fluorophenyl}-5-fluoropyridine-2-carboxamide], the IC50 in data set [1] is 87.1 nM; in data set [2], 13.2 nM; in data set [3] it was 89.1 nM; in data set [4], 15.1 nM.

The compound `C[C@@]1(c2cc(NC(=O)c3ccc(F)cn3)ccc2F)Cn2c(cn(CC(F)(F)F)c2=O)C(N)=N1` [Compound 7, N-{3-[(6R)-8-amino-6-methyl-3-oxo-2-(2,2,2-trifluoroethyl)-2,3,5,6-tetrahydroimidazo[1,5-a]pyrazin-6-yl]-4-fluorophenyl}-5-fluoropyridine-2-carboxamide] gave a melting point of 239.9 °C. Besides, in data set [1], the IC50 was 18.6 nM. The IC50 in data set [2] was 7.41 nM. Besides, the IC50 in data set [3] is 16.6 nM. For the same compound, in data set [4], the IC50 is 12.3 nM.

In turn, `C[C@@]1(c2cc(NC(=O)c3ccc(Cl)cn3)ccc2F)Cn2c(cn(CC(F)(F)F)c2=O)C(N)=N1` [Compound 8, N-{3-[(6R)-8-amino-6-methyl-3-oxo-2-(2,2,2-trifluoroethyl)-2,3,5,6-tetrahydroimidazo[1,5-a]pyrazin-6-yl]-4-fluorophenyl}-5-chloropyridine-2-carboxamide] came in with a melting point of 219.9 °C. Also, the IC50 in data set [1] was 5.62 nM. In data set [2], the IC50 was 6.61 nM. Moreover, in data set [3], the IC50 is 4.79 nM. For the same compound, the IC50 in data set [4] was 4.68 nM.

Turning to `Cc1cc(C#N)cnc1C(=O)Nc1ccc(F)c([C@]2(C)Cn3c(cn(C)c3=O)C(N)=N2)c1` [Compound 9, N-{3-[(6R)-8-amino-2,6-dimethyl-3-oxo-2,3,5,6-tetrahydroimidazo[1,5-a]pyrazin-6-yl]-4-fluorophenyl}-5-cyano-3-methylpyridine-2-carboxamide], the IC50 is 38.9 nM in data set [1], 22.9 nM in data set [2], 33.1 nM in data set [3] and 7.76 nM in data set [4].

In turn, `C[C@@]1(c2cc(NC(=O)c3ccc(C#N)cn3)ccc2F)Cn2c(cn(CC(F)(F)F)c2=O)C(N)=N1` [Compound 10, N-{3-[(6R)-8-amino-6-methyl-3-oxo-2-(2,2,2-trifluoroethyl)-2,3,5,6-tetrahydroimidazo[1,5-a]pyrazin-6-yl]-4-fluorophenyl}-5-cyanopyridine-2-carboxamide] had a melting point of 235 °C. Besides, in data set [1], the IC50 is 12.6 nM. In addition, the IC50 in data set [2] is 12 nM. In addition, the IC50 in data set [3] was 10.7 nM. For the same compound, in data set [4], the IC50 was 5.62 nM.

For the compound `COc1cnc(C(=O)Nc2ccc(F)c([C@]3(C)Cn4c(cn(CC(F)(F)F)c4=O)C(N)=N3)c2)cn1` [Compound 11, N-{3-[(6R)-8-amino-6-methyl-3-oxo-2-(2,2,2-trifluoroethyl)-2,3,5,6-tetrahydroimidazo[1,5-a]pyrazin-6-yl]-4-fluorophenyl}-5-methoxypyrazine-2-carboxamide], the melting point was found to be 280.5 °C. For the same compound, the IC50 in data set [1] is 12.3 nM. In data set [2], the IC50 is 55 nM. Also, the IC50 in data set [3] was 10 nM. Also, the IC50 in data set [4] is 8.71 nM.

These data come from patent US9834559B2, “4-Amino-6-phenyl-5,6-dihydroimidazo[1,5-a]pyrazin-3(2H)-one derivatives as inhibitors of beta-secretase (BACE)” (Janssen Pharmaceutica NV, priority 2013, dated 2017).
